Laboratory results published in paper PMC3900681, “Flock House Virus RNA Polymerase Initiates RNA Synthesis De Novo and Possesses a Terminal Nucleotidyl Transferase Activity” (PLoS ONE, 2014).

Target: T1, FHV protein A (MBP-Pro A) (Flock House virus, UniProt Q66929)
T1 construct: N-terminal MBP fusion (pMAL-c2X, EcoRI-SalI), tag kept; E. coli, amylose resin; ~155 kDa
Assay: RdRP assay, DIG-labelled RNA product on denaturing gel
Type: biochemical
Details: blocked (+)-RNA1_1-191 template, 250 uM DIG RNA Labelling Mix, 1 mM MnCl2, pH 8.0, 30 C, 90 min

T1 sequence (Q66929 whole entry, the tested form may be a part): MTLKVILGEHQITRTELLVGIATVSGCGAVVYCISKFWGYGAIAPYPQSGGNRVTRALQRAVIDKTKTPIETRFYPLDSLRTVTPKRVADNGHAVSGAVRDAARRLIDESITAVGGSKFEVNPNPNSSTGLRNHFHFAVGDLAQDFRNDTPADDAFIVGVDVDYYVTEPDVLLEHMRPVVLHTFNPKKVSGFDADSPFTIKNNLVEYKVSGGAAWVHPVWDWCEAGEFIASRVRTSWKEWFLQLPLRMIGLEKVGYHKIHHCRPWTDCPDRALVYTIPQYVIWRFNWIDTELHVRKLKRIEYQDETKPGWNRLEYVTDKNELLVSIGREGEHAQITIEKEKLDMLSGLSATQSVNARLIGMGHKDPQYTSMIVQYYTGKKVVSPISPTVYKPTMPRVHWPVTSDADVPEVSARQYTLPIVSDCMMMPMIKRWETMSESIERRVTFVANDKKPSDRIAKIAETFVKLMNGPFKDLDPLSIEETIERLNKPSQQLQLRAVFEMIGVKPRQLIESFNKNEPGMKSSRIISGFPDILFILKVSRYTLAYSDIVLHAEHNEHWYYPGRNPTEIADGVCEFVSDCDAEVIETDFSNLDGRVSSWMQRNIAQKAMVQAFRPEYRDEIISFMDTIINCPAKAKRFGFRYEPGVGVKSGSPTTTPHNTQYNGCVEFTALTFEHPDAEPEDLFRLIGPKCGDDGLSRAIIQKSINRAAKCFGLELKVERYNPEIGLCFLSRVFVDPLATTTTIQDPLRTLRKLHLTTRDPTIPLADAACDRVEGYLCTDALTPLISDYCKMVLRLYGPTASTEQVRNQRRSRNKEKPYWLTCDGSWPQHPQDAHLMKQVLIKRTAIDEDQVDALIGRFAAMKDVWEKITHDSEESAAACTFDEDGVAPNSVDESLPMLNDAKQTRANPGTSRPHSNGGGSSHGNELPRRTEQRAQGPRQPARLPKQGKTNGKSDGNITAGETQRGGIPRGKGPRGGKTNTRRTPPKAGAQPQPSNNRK

O=C(O)CP(=O)(O)O [PAA, phosphonoacetic acid]
inhibition, dose-response: PAA dramatically inhibited the RdRP activity of FHV protein A in a dose-response manner
